pIC50: −log10 of the molar value. Where two headings read alike, the source gives them in different places.

Data set [1] is described as follows: Tablet versus PIB formulation, single oral 20 mg dose, parallel design. Conditions: for half-life: po, read-out: t1/2, z (mean) (converted). Type of data set: in vivo, dogs. As for the experimental part:
In a parallel design study with a total of 24 dogs (1:1 treatment allocation ratio), Group 1 received Compound 1 as a 20-mg oral tablet and Group 2 received a 20-mg reconstituted oral suspension of the PIB formulation. For each dose group, blood samples were collected from each animal at pre-dose and up to 24 hours post-dose for Compound 1 plasma concentration measurements.

The target in another data set is P-gp (Homo sapiens, UniProt P08183). In words: Transporter interaction study (substrate and inhibition). It is filed as in vitro ADME. How it is done:
(§1) Plasma PK of Compound 1 was characterized in rats and beagle dogs. Toxicokinetic (TK) evaluations of oral Compound 1 were evaluated in repeat-dose studies in rats and dogs. Plasma protein binding was determined in mouse, rat, dog, monkey, and human plasma in vitro. Biotransformation and metabolite profiling of Compound 1 were investigated in vitro using mouse, rat, dog, monkey, and human liver microsomal fractions and hepatocytes and in vivo in rats and dogs. P-glycoprotein (P-gp) and breast cancer resistance protein (BCRP) transporter interaction studies, in vitro experiments evaluating cytochrome P450 (CYP) induction and inhibition by Compound 1, and CYP and glucuronosyltransferase (UGT) substrate specificity studies of Compound 1 were also performed.

The target of a further data set is BCRP (Homo sapiens, UniProt Q9UNQ0). The description is as above. It is filed as in vitro ADME. How it is done: as §1
Chain of BCRP (Q9UNQ0 whole entry): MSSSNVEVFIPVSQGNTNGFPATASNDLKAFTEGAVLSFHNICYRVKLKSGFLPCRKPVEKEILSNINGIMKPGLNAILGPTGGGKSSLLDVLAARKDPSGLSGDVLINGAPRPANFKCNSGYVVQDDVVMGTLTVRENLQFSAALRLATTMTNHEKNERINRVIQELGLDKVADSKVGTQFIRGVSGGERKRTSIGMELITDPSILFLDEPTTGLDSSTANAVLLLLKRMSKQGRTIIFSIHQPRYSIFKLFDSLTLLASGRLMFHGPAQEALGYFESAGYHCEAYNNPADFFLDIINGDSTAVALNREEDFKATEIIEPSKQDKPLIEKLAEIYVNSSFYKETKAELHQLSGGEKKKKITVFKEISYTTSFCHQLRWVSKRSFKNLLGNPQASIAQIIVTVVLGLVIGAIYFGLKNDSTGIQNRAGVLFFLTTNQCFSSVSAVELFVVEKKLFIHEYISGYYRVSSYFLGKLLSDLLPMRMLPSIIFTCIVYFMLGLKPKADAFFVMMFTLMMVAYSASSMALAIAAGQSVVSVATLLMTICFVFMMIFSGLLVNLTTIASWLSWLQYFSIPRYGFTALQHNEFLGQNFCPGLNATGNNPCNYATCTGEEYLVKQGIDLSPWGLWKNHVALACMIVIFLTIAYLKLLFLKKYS
The next data set addresses MET (Homo sapiens, UniProt P08581). Nature of the data set: In vivo target modulation: MET phosphorylation by Western blot in SNU-5 xenografts. Details: endogenous in cells; host or cells: SNU-5 human tumour xenografts in CB.17 SCID mice; species or system CB.17 SCID mice. Conditions: for Compound 1 Plasma Exposure: qd × 14, 4 hours after last dose on Day 14. As for the experimental part: Three human tumor cell lines, NCI-H441, MDA-MB-231, and SNU-5, were selected for use in tumor xenograft studies using athymic nude, NSG and CB.17 SCID mice, respectively. Pharmacodynamic modulation of MET phosphorylation was also measured in the NCI-H441 and SNU-5 xenografts. Tumor-bearing mice were orally dosed once-daily for 14 days (qd×14), and the tumors were resected and processed for MET phosphorylation analysis by Western blot. […]

A further data set addresses VEGFR2 (Homo sapiens, UniProt P35968). Nature of the data set: RTK autophosphorylation ELISA, HUVEC stimulated with VEGF165. Conditions: VEGFR2, ligand VEGF165; read-out: Cellular IC50. Type of data set: cell-based. Details: cell lines (PC-3, HUVEC, and A-172) stimulated with ligands to their respective receptors to induce autophosphorylation (MET, VEGFR2, and AXL); endogenous in cells; host or cells: HUVEC. How it is done:
The activity of Compound 1 was evaluated in cell-based assays that assessed the mechanistic effects of the compound in tumor and normal cells. Consistent with the biochemical data, Compound 1 is a potent inhibitor of cellular RTKs as assessed by analysis of receptor autophosphorylation as measured by enzyme-linked immunosorbent assay. Assays were performed using cell lines (PC-3, HUVEC, and A-172) stimulated with ligands to their respective receptors to induce autophosphorylation (MET, VEGFR2, and AXL) or a cell line (293A) transfected with an expression vector encoding the receptor of interest (MER). Inhibition of endogenous phosphorylated MET by Compound 1 in Hs 746T gastric carcinoma cells was also investigated due to the presence of the skip-splice mutation of exon 14 in the MET gene. This MET exon 14 alteration leads to increased MET stability and oncogenic activation, including constitutive MET phosphorylation. Also this mutation is known to occur in 3% of lung adenocarcinoma patients and to be sensitive to MET-targeted therapies (Frampton et al 2015).

Data set [2] in a line: Liver microsomal stability assay. It is filed as in vitro ADME, dog. Conditions: liver microsomes. How it is done: In the liver microsomal stability assay, CLint was 0.601 mL/min/g liver in mouse, 0.563 mL/min/g liver in rat, 0.315 mL/min/g liver in dog, 0.734 mL/min/g liver in monkey, and 0.639 mL/min/g liver in human. In the hepatocyte stability assay, Compound 1 CLint was 0.373 mL/min/g liver in mouse, 0.285 mL/min/g liver in rat, 1.08 mL/min/g liver in dog, 0.533 mL/min/g liver in monkey, and 0.317 mL/min/g liver in human.

[3] abbreviates: SNU-5, mouse, po, read-out: p-MET Inhibition %.

Chain of MET (P08581 25-1390): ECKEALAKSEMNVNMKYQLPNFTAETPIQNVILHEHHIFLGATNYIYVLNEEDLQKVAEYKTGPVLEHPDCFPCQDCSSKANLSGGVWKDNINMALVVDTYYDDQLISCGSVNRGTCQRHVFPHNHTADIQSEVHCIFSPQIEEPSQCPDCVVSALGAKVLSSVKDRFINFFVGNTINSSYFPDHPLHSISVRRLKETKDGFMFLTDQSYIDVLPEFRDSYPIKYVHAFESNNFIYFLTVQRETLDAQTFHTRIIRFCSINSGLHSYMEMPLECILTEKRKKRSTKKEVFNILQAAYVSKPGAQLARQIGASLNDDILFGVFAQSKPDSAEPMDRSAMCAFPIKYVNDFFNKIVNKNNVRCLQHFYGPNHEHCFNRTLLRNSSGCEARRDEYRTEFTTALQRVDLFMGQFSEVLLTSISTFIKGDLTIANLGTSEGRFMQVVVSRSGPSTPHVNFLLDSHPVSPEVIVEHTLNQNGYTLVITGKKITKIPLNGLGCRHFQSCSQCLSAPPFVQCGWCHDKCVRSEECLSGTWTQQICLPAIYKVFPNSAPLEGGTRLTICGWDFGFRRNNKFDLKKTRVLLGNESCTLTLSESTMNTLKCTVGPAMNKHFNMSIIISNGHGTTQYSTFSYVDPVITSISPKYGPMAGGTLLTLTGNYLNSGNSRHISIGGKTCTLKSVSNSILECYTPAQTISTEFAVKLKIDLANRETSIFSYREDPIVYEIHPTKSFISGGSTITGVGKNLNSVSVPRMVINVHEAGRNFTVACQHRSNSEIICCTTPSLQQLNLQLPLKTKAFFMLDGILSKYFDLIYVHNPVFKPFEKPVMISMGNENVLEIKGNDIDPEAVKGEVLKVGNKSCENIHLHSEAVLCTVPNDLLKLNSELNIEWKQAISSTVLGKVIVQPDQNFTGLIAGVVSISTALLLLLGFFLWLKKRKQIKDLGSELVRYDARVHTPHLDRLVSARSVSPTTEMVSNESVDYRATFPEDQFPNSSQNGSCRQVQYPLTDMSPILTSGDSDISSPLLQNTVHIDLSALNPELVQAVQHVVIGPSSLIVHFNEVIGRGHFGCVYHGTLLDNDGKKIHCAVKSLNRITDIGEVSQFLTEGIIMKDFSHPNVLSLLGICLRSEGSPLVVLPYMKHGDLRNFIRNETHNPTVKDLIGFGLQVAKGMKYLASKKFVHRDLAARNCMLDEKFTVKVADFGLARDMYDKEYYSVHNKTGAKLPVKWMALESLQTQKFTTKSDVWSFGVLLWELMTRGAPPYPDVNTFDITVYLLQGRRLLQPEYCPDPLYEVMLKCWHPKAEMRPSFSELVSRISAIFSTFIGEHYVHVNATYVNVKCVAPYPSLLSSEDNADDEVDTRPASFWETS
Chain of P-gp (P08183 whole entry): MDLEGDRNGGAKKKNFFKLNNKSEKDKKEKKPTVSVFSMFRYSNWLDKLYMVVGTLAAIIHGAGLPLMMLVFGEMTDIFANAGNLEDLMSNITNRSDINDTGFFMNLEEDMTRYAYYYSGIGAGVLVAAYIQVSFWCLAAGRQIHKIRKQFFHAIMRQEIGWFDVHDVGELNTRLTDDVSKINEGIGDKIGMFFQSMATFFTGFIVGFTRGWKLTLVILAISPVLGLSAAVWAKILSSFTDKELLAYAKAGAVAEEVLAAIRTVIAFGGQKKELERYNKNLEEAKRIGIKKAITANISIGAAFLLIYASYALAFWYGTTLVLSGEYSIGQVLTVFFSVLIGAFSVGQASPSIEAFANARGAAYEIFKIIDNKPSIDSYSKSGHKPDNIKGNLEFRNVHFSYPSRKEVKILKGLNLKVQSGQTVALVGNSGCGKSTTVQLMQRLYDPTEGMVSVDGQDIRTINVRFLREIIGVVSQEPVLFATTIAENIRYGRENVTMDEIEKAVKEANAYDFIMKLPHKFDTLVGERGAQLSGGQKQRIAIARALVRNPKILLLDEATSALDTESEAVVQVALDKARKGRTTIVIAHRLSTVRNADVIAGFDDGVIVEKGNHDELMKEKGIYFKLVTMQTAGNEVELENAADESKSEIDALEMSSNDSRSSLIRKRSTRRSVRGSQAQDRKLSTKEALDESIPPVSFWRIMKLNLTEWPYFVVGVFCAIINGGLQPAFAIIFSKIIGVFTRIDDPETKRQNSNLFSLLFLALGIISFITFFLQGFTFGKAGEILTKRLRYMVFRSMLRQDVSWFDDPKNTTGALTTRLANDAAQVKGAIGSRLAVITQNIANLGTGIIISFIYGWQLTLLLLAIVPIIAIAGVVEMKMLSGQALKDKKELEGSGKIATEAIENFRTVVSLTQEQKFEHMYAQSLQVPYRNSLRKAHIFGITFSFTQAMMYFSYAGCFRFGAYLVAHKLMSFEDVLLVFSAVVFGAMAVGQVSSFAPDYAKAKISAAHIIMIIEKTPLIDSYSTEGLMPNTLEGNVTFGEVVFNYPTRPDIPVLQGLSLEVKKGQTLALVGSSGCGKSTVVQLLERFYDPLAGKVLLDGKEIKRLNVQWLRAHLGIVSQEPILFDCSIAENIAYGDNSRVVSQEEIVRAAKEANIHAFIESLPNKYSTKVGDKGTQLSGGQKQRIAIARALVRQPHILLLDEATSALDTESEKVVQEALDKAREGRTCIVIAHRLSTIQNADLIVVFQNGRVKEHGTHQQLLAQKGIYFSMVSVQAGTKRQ
Chain of VEGFR2 (P35968 20-1356): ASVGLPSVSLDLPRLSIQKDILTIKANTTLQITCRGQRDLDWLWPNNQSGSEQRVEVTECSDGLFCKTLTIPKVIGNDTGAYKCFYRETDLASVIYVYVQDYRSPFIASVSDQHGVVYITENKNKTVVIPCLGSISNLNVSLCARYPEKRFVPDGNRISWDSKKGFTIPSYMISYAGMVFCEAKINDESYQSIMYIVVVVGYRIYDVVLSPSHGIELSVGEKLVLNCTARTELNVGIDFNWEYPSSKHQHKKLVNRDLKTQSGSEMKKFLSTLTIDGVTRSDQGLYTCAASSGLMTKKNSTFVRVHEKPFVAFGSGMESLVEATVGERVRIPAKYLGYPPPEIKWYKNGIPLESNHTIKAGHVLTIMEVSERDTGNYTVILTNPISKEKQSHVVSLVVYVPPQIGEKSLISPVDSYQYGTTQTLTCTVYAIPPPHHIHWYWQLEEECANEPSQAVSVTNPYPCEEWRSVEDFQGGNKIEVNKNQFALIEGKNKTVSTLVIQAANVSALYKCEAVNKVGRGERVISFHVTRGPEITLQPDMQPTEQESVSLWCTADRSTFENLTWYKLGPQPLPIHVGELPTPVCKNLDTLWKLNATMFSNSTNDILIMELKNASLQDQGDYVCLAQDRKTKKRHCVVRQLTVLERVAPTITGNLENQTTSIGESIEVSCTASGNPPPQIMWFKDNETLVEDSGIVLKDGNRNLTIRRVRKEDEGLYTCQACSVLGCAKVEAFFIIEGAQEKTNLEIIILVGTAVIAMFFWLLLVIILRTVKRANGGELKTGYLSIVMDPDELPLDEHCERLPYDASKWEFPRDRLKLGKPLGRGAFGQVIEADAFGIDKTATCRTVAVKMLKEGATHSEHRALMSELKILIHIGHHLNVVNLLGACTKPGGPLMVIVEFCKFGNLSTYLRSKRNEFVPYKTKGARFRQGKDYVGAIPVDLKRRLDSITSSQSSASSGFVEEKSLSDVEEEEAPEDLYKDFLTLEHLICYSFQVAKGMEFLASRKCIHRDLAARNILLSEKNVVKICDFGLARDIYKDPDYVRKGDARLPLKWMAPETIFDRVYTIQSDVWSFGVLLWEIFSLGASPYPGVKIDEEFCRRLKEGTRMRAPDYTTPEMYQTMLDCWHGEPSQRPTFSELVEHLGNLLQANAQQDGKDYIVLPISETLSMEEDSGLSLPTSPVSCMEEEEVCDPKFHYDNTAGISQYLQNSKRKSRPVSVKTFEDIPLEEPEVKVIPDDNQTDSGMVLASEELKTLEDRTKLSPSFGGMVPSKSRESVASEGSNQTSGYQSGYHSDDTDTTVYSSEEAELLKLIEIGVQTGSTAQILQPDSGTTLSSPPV

On to `CNC(=O)c1cc2c(Oc3ccc(NC(=O)C4(C(=O)Nc5ccc(F)cc5)CC4)cc3)ccnc2cc1OC` [Compound 1, 1-N′-(4-Fluorophenvl)-1-N-[4-[7-methoxy-6-(methylcarbamovl)quinolin-4-yl]oxyphenyl]cyclopropane-1,1-dicarboxamide], for which the “mean AUC0-24 of PIB formulation higher than tablet formulation” value in data set [1] (20 mg single oral dose) amounted to 49%. The “mean Cmax of PIB formulation higher than tablet formulation” value in data set [1] (20 mg single oral dose) came to 61%. Also, in data set [1] (beagle, dog, plasma, oral, 20 mg, both formulations (PIB and tablet), read-out: median tmax), the Tmax (as a rule, the time at which the peak concentration occurs) was 3 h. Also, the half-life in data set [1] (beagle, dog, plasma, 20 mg, 20 mg reconstituted oral suspension of PIB formulation) is 4.85 h; in data set [1] (beagle, dog, plasma, 20 mg, 20-mg oral tablet) it was 5.66 h. In addition, the substrate of transporter entry at P-gp and at BCRP was “not to be a substrate” throughout. The results for the pIC50 against P-gp (strong inhibitor), against BCRP (strong inhibitor) and on VEGFR2 were 7.23, 6.72 and 8.82, respectively. Also, the “Compound 1 Plasma Exposure” value on MET (3 mg/kg) was 1.88 µM; on MET (10 mg/kg), 7.64 µM. Besides, on MET (setting [3]), the inhibition (usually the drop in the measured response relative to a control, in per cent) at 3 mg/kg is 26%. In addition, the inhibition at 10 mg/kg on MET (setting [3]) was 67%. In data set [2], this molecule had a CLint of 0.315 mL/min/g liver.

These data come from patent publication US12673052B2, “Combinations for the treatment of cancer” (Exelixis, Inc., priority 2020, dated 2026).
